Data set [1] deals with T1, HSA Fragment (Homo sapiens, UniProt P02768, form not given).
T1 construct: HSA Fragment
Briefly: BIACORE binding to HSA Fragment. Particulars: human, HSA fragment, Protein: HSA Fragment; read-out: KD2. The text has this: (§1) In the following examples, Biacore and Animal Study data were obtained with regard to some of the compounds of the present invention, namely NCP 014, 023, 023a.

For data set [2], the target named is T2, HSA Fragment (Homo sapiens, UniProt P02768).
T2 construct: HSA Fragment
Briefly: BIACORE binding to HSA Fragment. Particulars: Protein: HSA Fragment; number of binding sites.
From the text: as §1
For orientation: Surface plasmon resonance follows binding to a sensor surface in real time, without labels.

A further data set addresses Rat Albumin (Rattus norvegicus, UniProt P02770). Briefly: BIACORE binding to Rat Albumin. Particulars: Protein: Rat Albumin; for Binding Sites: number of binding sites; for Kd: read-out: KD1.
From the text: as §1

In the next data set the target is human serum albumin (Homo sapiens, UniProt P02768). Kind of data set: Crystallographic determination of albumin binding site. Conditions: serum albumin binding region observed.
For another data set, the target named is HSA (Homo sapiens, UniProt P02768). Kind of data set: BIACORE binding to HSA. Conditions: Protein: HSA; for Binding Sites: number of binding sites.
From the text: as §1

Structures are written as SMILES. Where “and” joins values, the source holds several entries; their conditions need not be identical. Identical values can stand only once. Like-named read-outs stand apart in the source and are kept apart here.

This is an account of results in US7439077B2, “Coumarin analog compounds for safer anticoagulant treatment” (New Century Pharmaceuticals, Inc., priority 2002, dated 2008).

T1 sequence (P02768 whole entry, the tested form may be a part): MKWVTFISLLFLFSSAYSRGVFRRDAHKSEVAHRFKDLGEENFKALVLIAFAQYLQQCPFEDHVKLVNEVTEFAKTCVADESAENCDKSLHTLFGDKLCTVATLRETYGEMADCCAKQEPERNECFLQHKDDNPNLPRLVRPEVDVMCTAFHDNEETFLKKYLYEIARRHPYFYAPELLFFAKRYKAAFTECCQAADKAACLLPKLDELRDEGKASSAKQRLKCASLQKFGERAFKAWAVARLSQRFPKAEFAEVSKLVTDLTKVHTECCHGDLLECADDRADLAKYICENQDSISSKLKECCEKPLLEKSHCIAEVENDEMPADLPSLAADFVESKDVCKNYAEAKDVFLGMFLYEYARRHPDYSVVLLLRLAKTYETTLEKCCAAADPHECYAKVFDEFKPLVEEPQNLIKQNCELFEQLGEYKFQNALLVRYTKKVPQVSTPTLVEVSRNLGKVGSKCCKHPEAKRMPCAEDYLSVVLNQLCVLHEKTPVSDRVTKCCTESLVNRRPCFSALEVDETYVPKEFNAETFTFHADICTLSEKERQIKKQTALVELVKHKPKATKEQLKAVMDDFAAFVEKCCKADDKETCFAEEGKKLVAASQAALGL
HSA, sequence (P02768 25-609): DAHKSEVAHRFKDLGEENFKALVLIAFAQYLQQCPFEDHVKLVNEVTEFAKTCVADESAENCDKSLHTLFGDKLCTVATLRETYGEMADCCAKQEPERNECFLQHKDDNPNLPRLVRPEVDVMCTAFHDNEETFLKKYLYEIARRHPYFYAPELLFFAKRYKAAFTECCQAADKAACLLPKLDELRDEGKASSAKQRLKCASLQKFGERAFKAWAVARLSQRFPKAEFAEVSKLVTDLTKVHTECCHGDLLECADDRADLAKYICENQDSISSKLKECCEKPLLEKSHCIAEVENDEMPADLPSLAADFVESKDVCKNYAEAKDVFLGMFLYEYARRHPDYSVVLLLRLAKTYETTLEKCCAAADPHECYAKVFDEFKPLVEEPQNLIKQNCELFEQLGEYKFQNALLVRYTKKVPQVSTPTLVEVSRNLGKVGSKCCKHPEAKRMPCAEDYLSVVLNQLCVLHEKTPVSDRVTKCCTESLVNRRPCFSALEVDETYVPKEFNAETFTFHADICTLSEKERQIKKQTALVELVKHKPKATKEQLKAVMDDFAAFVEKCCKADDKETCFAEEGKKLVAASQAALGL
human serum albumin, sequence (P02768 25-609): as above
Rat Albumin, sequence (P02770 25-608): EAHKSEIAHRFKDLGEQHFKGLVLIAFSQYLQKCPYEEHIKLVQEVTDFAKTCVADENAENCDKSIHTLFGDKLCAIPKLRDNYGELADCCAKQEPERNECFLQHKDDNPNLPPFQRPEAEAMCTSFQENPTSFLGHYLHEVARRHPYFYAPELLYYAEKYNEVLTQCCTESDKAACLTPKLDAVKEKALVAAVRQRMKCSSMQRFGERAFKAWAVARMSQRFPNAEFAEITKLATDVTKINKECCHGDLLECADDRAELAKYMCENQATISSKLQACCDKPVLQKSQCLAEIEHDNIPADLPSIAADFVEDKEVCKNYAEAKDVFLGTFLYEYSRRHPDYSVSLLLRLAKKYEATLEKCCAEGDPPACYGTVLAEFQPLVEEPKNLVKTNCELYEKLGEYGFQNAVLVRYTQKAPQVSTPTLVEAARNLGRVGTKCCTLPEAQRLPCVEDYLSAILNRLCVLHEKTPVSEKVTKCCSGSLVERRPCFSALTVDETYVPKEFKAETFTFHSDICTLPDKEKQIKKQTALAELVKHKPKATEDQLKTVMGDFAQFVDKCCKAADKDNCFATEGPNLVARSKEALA
T2 sequence (P02768 whole entry, the tested form may be a part): as the sequence (P02768 whole entry, the tested form may be a part) above

With `CCCCCCCCC(CC(C)=O)c1c(O)c2ccccc2oc1=O` (stereo not shown) [NCP 014], the Kd at HSA Fragment [1] is 97 µM; on Rat Albumin, 4.6 µM; at HSA (read-out: KD1) it was 0.7 µM and 0.8 µM and 4.6 µM and 6.5 µM; on HSA (human, HSA (human serum albumin), read-out: KD2), 130 µM. For the same compound, the “Binding Sites” value at HSA Fragment [2] is 2 and 1; on Rat Albumin, 2; on HSA it was 2 and 1. The “albumin binding site (location)” value on human serum albumin was “bind at the IB binding site, and in addition in the IIA binding site, but at a location different than the major site wherein sodium warfarin binds to albumin”.

As for `CC(=O)CC(Cc1ccccc1)c1c(O)c2ccccc2oc1=O` (stereo not shown) [NCP 023], the Kd at HSA Fragment [1] was 220 µM; at Rat Albumin it was 85 µM; at HSA (read-out: KD2), 112 µM and 160 µM. Also, the “albumin binding site (location)” value at human serum albumin was “bind at the IB site of serum albumin unique from the IB endogenous long-chain fatty acid site”. The “Binding Sites” value on HSA is 2 and 1.

On to `CC(=O)CC(Cc1ccc(Cl)cc1)c1c(O)c2ccccc2oc1=O` (stereo not shown) [NCP 023a], for which the Kd on HSA Fragment [1] was determined as 50 µM; at Rat Albumin, 11.8 µM; at HSA (read-out: KD2), 40 µM. Moreover, the “Binding Sites” value was 2 on Rat Albumin; 1 and 2 on HSA. Also, the “albumin binding site (location)” value at human serum albumin is on record as “bind at the IB site of serum albumin unique from the IB endogenous long-chain fatty acid site”.
